Test results from patent US20260256792A1, “TREATMENT OF CHRONIC SPONTANEOUS URTICARIA BY ADMINISTERING (R)-2-[3-[4-AMINO-3-(2-FLUORO-4-PHENOXY-PHENYL)PYRAZOLO[3,4-D]PYRIMIDIN-1-YL]PIPERIDINE-1-CARBONYL]-4-METHYL-4-[4-(OXETAN-3-YL)PIPERAZIN-1-YL]PENT-2-ENENITRILE” (priority 2023, published 2026).

System: moderate-to-severe chronic spontaneous urticaria (CSU)
Assay: Phase 2 CSU study: urticaria activity score over 7 days (UAS7)
Format: in vivo, human
Set-up: key to UAS7 Median / UAS7 Change from baseline Median / UAS7 change from baseline, Q1 / UAS7 change from baseline, Q3 / UAS7 change from baseline, Max / UAS7 Change from baseline LS Mean (SE): UAS7 points; daily UAS score ranges 0–6 points/day, over 7 days
Text: The study comprises a 12 week, randomized, double-blind, placebo-controlled, multi-center, dose-ranging efficacy and safety phase, followed by a 40 week open label extension (OLE) phase (see FIG. 1). The study consists of three phases and an optional OLE phase. […] Clinically, CSU is characterized by the spontaneous and recurrent appearance of pruritic hives. The proposed primary endpoints were the UAS7 at Week 12 in EU and EU reference countries and the ISS7 in the US. Regardless of where a participant was from, all assessments were the same. The UAS7 score is a composite score containing both the HSS7 and the ISS7. This allowed a global assessment of the two key components of urticaria: hives and itch. […] The UAS is a validated PRO measure. […] The daily UAS scores range from 0 to 6 point/day. […] Patients were to complete the UAS using the e-diary. […] The following secondary endpoints were to be analyzed using the same approach as for the primary endpoint: • Change from baseline in UAS7 at Week 4 • Change from baseline in UAS7 at Week 12 (for US and US reference countries) • Change from baseline in ISS7 at Week 12 (except US and US reference countries) • Change from baseline in HSS7 at Week 12 The following responder secondary endpoints were to be analyzed using the Cochran-Mantel-Haenszel test adjusted by region: • Proportion of participants with UAS7<6 at Week 12 • Proportion of participants with UAS7=0 at Week 12 Participants who received selected prohibited medications and/or rescue medications were to be considered as non-responders for time points after the medication usage. For other participants, all available data including those collected during the off-treatment period were to be used to determine the responder/non-responder status. Missing data were to be considered as non-responders.

[1] = Week 1, 400 mg QPM, Prior Omalizumab Use
[2] = Week 1, 400 mg QPM, omalizumab-naive participants
[3] = Week 1, 400 mg TID, ITT population
[4] = Week 1, 400 mg TID, Omalizumab-Naïve
[5] = Week 1, 400 mg TID, Prior Omalizumab Use
[6] = Week 1, 400 mg TID, omalizumab-naive participants
[7] = Week 2, 400 mg BID, ITT population
[8] = Week 2, 400 mg BID, Omalizumab-Naïve
[9] = Week 2, 400 mg BID, Prior Omalizumab Use
[10] = Week 2, 400 mg BID, omalizumab-naive participants
[11] = Week 2, 400 mg QPM, ITT population
[12] = Week 2, 400 mg QPM, Omalizumab-Naïve
[13] = Week 2, 400 mg QPM, Prior Omalizumab Use
[14] = Week 2, 400 mg QPM, omalizumab-naive participants
[15] = Week 2, 400 mg TID, ITT population
[16] = Week 2, 400 mg TID, Omalizumab-Naïve
[17] = Week 2, 400 mg TID, Prior Omalizumab Use
[18] = Week 2, 400 mg TID, omalizumab-naive participants
[19] = Week 3, 400 mg BID, ITT population
[20] = Week 3, 400 mg BID, Omalizumab-Naïve
[21] = Week 3, 400 mg BID, Prior Omalizumab Use
[22] = Week 3, 400 mg BID, omalizumab-naive participants
[23] = Week 3, 400 mg QPM, ITT population
[24] = Week 3, 400 mg QPM, Omalizumab-Naïve
[25] = Week 3, 400 mg QPM, Prior Omalizumab Use
[26] = Week 3, 400 mg QPM, omalizumab-naive participants
[27] = Week 3, 400 mg TID, ITT population
[28] = Week 3, 400 mg TID, Omalizumab-Naïve

## CC(C)(C=C(C#N)C(=O)N1CCC[C@@H](n2nc(-c3ccc(Oc4ccccc4)cc3F)c3c(N)ncnc32)C1)N1CCN(C2COC2)CC1 [rilzabrutinib, (R)-2-[3-[4-amino-3-(2-fluoro-4-phenoxy-phenyl)pyrazolo[3,4-d]pyrimidin-1-yl]piperidine-1-carbonyl]-4-methyl-4-[4-(oxetan-3-yl)piperazin-1-yl]pent-2-enenitrile]
[1]
  UAS7 Percent change from baseline Mean (SD): −39.02 (NC) %
  UAS7 Percent change from baseline Median: −39.02%
[2]
  Non-responder, UAS7 reduction from baseline of 10 points or more: 26 (70.3) n (%)
  OR for rilzabrutinib vs. placebo, UAS7 reduction of 10 points or more: 1.510
  RRD (%) for rilzabrutinib vs. placebo, UAS7 reduction of 10 points or more: 8.2 %
  Responder, UAS7 reduction from baseline of 10 points or more: 11 (29.7) n (%)
[3]
  Non-responder, UAS7 reduction from baseline of 10 points or more: 18 (43.9) n (%)
  OR for rilzabrutinib vs. placebo, UAS7 reduction of 10 points or more: 4.196
  RRD (%) for rilzabrutinib vs. placebo, UAS7 reduction of 10 points or more: 32.5 %
  Responder, UAS7 reduction from baseline of 10 points or more: 23 (56.1) n (%)
[4]
  UAS7 Change from baseline Mean (SD): −11.57 (10.61)
  UAS7 Change from baseline Median: −10.00
  UAS7 Mean (SD): 17.77 (10.26)
  UAS7 Median: 18.00
  UAS7 Percent change from baseline Mean (SD): −38.05 (33.56) %
  UAS7 Percent change from baseline Median: −30.95%
[5]
  UAS7 Change from baseline Mean (SD): −20.86 (9.80)
  UAS7 Change from baseline Median: −21.00
  UAS7 Mean (SD): 12.17 (8.54)
  UAS7 Percent change from baseline Mean (SD): −63.75 (22.12) %
  UAS7 Percent change from baseline Median: −69.05%
[6]
  Non-responder, UAS7 reduction from baseline of 10 points or more: 17 (48.6) n (%)
  OR for rilzabrutinib vs. placebo, UAS7 reduction of 10 points or more: 3.580
  RRD (%) for rilzabrutinib vs. placebo, UAS7 reduction of 10 points or more: 28.5 %
  Responder, UAS7 reduction from baseline of 10 points or more: 18 (51.4) n (%)
[7]
  Non-responder, UAS7 reduction from baseline of 10 points or more: 19 (46.3) n (%)
  OR for rilzabrutinib vs. placebo, UAS7 reduction of 10 points or more: 3.388
  RRD (%) for rilzabrutinib vs. placebo, UAS7 reduction of 10 points or more: 27.8 %
  Responder, UAS7 reduction from baseline of 10 points or more: 22 (53.7) n (%)
[8]
  UAS7 Change from baseline Mean (SD): −10.10 (8.61)
  UAS7 Change from baseline Median: −10.00
  UAS7 Mean (SD): 19.59 (10.86)
  UAS7 Median: 18.10
  UAS7 Percent change from baseline Mean (SD): −35.50 (31.03) %
  UAS7 Percent change from baseline Median: −35.71%
[9]
  UAS7 Change from baseline Mean (SD): −14.00 (14.98)
  UAS7 Change from baseline Median: −10.00
  UAS7 Mean (SD): 19.00 (13.67)
  UAS7 Median: 23.00
  UAS7 Percent change from baseline Mean (SD): −40.50 (43.43) %
  UAS7 Percent change from baseline Median: −27.44%
[10]
  Non-responder, UAS7 reduction from baseline of 10 points or more: 17 (48.6) n (%)
  OR for rilzabrutinib vs. placebo, UAS7 reduction of 10 points or more: 3.686
  RRD (%) for rilzabrutinib vs. placebo, UAS7 reduction of 10 points or more: 28.9 %
  Responder, UAS7 reduction from baseline of 10 points or more: 18 (51.4) n (%)
[11]
  Non-responder, UAS7 reduction from baseline of 10 points or more: 23 (60.5) n (%)
  OR for rilzabrutinib vs. placebo, UAS7 reduction of 10 points or more: 2.169
  RRD (%) for rilzabrutinib vs. placebo, UAS7 reduction of 10 points or more: 16.6 %
  Responder, UAS7 reduction from baseline of 10 points or more: 15 (39.5) n (%)
[12]
  UAS7 Change from baseline Mean (SD): −7.67 (8.84)
  UAS7 Change from baseline Median: −5.00
  UAS7 Mean (SD): 23.44 (8.97)
  UAS7 Median: 23.00
  UAS7 Percent change from baseline Mean (SD): −23.23 (26.34) %
  UAS7 Percent change from baseline Median: −16.67%
[13]
  UAS7 Change from baseline Mean (SD): −19.00 (NC)
  UAS7 Change from baseline Median: −19.00
  UAS7 Mean (SD): 22.00 (NC)
  UAS7 Median: 22.00
  UAS7 Percent change from baseline Mean (SD): −46.34 (NC) %
  UAS7 Percent change from baseline Median: −46.34%
[14]
  Non-responder, UAS7 reduction from baseline of 10 points or more: 23 (62.2) n (%)
  OR for rilzabrutinib vs. placebo, UAS7 reduction of 10 points or more: 2.174
  RRD (%) for rilzabrutinib vs. placebo, UAS7 reduction of 10 points or more: 16.6 %
  Responder, UAS7 reduction from baseline of 10 points or more: 14 (37.8) n (%)
[15]
  Non-responder, UAS7 reduction from baseline of 10 points or more: 13 (31.7) n (%)
  OR for rilzabrutinib vs. placebo, UAS7 reduction of 10 points or more: 5.982
  RRD (%) for rilzabrutinib vs. placebo, UAS7 reduction of 10 points or more: 40.6 %
  Responder, UAS7 reduction from baseline of 10 points or more: 28 (68.3) n (%)
[16]
  UAS7 Change from baseline Mean (SD): −13.69 (11.66)
  UAS7 Change from baseline Median: −11.00
  UAS7 Mean (SD): 15.65 (10.66)
  UAS7 Median: 14.00
  UAS7 Percent change from baseline Mean (SD): −45.70 (36.18) %
  UAS7 Percent change from baseline Median: −46.67%
[17]
  UAS7 Change from baseline Mean (SD): −24.69 (11.86)
  UAS7 Change from baseline Median: −22.50
  UAS7 Mean (SD): 8.33 (9.77)
  UAS7 Median: 5.50
  UAS7 Percent change from baseline Mean (SD): −75.38 (23.12) %
  UAS7 Percent change from baseline Median: −73.96%
[18]
  Non-responder, UAS7 reduction from baseline of 10 points or more: 13 (37.1) n (%)
  OR for rilzabrutinib vs. placebo, UAS7 reduction of 10 points or more: 5.505
  RRD (%) for rilzabrutinib vs. placebo, UAS7 reduction of 10 points or more: 39.0 %
  Responder, UAS7 reduction from baseline of 10 points or more: 22 (62.9) n (%)
[19]
  Non-responder, UAS7 reduction from baseline of 10 points or more: 20 (48.8) n (%)
  OR for rilzabrutinib vs. placebo, UAS7 reduction of 10 points or more: 2.109
  RRD (%) for rilzabrutinib vs. placebo, UAS7 reduction of 10 points or more: 18.0 %
  Responder, UAS7 reduction from baseline of 10 points or more: 21 (51.2) n (%)
[20]
  UAS7 Change from baseline Mean (SD): −12.02 (10.63)
  UAS7 Change from baseline Median: −9.00
  UAS7 Mean (SD): 17.71 (11.91)
  UAS7 Median: 16.80
  UAS7 Percent change from baseline Mean (SD): −41.11 (35.05) %
  UAS7 Percent change from baseline Median: −32.14%
[21]
  UAS7 Change from baseline Mean (SD): −15.81 (16.39)
  UAS7 Change from baseline Median: −15.00
  UAS7 Mean (SD): 17.19 (13.86)
  UAS7 Median: 18.58
  UAS7 Percent change from baseline Mean (SD): −44.47 (44.78) %
  UAS7 Percent change from baseline Median: −41.73%
[22]
  Non-responder, UAS7 reduction from baseline of 10 points or more: 18 (51.4) n (%)
  OR for rilzabrutinib vs. placebo, UAS7 reduction of 10 points or more: 2.057
  RRD (%) for rilzabrutinib vs. placebo, UAS7 reduction of 10 points or more: 17.2 %
  Responder, UAS7 reduction from baseline of 10 points or more: 17 (48.6) n (%)
[23]
  Non-responder, UAS7 reduction from baseline of 10 points or more: 22 (57.9) n (%)
  OR for rilzabrutinib vs. placebo, UAS7 reduction of 10 points or more: 1.663
  RRD (%) for rilzabrutinib vs. placebo, UAS7 reduction of 10 points or more: 11.7 %
  Responder, UAS7 reduction from baseline of 10 points or more: 16 (42.1) n (%)
[24]
  UAS7 Change from baseline Mean (SD): −9.10 (8.78)
  UAS7 Change from baseline Median: −7.00
  UAS7 Mean (SD): 22.01 (9.00)
  UAS7 Median: 22.00
  UAS7 Percent change from baseline Mean (SD): −28.09 (25.63) %
  UAS7 Percent change from baseline Median: −26.67%
[25]
  UAS7 Change from baseline Mean (SD): −22.00 (NC)
  UAS7 Change from baseline Median: −22.00
  UAS7 Mean (SD): 19.00 (NC)
  UAS7 Median: 19.00
  UAS7 Percent change from baseline Mean (SD): −53.66 (NC) %
  UAS7 Percent change from baseline Median: −53.66%
[26]
  Non-responder, UAS7 reduction from baseline of 10 points or more: 22 (59.5) n (%)
  OR for rilzabrutinib vs. placebo, UAS7 reduction of 10 points or more: 1.665
  RRD (%) for rilzabrutinib vs. placebo, UAS7 reduction of 10 points or more: 11.4 %
  Responder, UAS7 reduction from baseline of 10 points or more: 15 (40.5) n (%)
[27]
  Non-responder, UAS7 reduction from baseline of 10 points or more: 14 (34.1) n (%)
  OR for rilzabrutinib vs. placebo, UAS7 reduction of 10 points or more: 3.444
  RRD (%) for rilzabrutinib vs. placebo, UAS7 reduction of 10 points or more: 31.4 %
  Responder, UAS7 reduction from baseline of 10 points or more: 27 (65.9) n (%)
[28]
  UAS7 Change from baseline Mean (SD): −13.97 (12.14)
  UAS7 Change from baseline Median: −14.00
  UAS7 Mean (SD): 15.37 (9.87)
  UAS7 Median: 14.00
